Measured values as given in US20250230147A1, “LACTAMS AS CBL-B INHIBITORS” (Genentech, Inc., priority 2021, published 2025).

Legend:
Cbl-b = Cbl-b (Homo sapiens (Human), UniProt Q13191); assay: Cbl-b LCK Ub TR-FRET assay (Cbl-b Lck HTRF); format: biochemical
Procedure, shortened: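 Biotin-Cbl-b preincubated with compound (10-point 3-fold series) 60 min, then His-LCK with 1 mM ATP (2× mixture) added for 90 min at room temperature. Ubiquitination detected by TR-FRET using HA-ubiquitin/UBE2D2 adduct, anti-HA-D2 and streptavidin-Eu; IC50 normalised to no-LCK and DMSO controls.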

c-Cbl = c-Cbl (Homo sapiens (Human), UniProt P22681); assay: C-Cbl LCK Ub TR-FRET assay (c-cbl Lck HTRF); format: biochemical; details: for (fold-selectivity): C-cbl Lck HTRF IC50 relative to Cbl-b Lck HTRF IC50
c-Cbl, sequence (P22681 47-435): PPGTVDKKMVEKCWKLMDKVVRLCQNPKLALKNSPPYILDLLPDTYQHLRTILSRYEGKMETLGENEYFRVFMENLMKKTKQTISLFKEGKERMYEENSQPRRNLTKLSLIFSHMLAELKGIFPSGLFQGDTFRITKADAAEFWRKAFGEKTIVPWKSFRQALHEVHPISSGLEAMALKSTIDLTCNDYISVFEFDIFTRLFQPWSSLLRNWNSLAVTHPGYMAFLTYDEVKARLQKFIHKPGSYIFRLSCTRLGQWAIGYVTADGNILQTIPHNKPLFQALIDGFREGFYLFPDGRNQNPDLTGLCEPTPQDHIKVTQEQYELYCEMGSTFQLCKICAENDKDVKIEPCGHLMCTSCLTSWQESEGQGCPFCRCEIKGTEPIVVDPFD
Procedure, shortened: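 Detection reagents added, brief spin, 20 min RT. IC50 fit normalized to no-LCK (low) and DMSO (high) controls.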

Cbl-b, sequence (Q13191 40-426): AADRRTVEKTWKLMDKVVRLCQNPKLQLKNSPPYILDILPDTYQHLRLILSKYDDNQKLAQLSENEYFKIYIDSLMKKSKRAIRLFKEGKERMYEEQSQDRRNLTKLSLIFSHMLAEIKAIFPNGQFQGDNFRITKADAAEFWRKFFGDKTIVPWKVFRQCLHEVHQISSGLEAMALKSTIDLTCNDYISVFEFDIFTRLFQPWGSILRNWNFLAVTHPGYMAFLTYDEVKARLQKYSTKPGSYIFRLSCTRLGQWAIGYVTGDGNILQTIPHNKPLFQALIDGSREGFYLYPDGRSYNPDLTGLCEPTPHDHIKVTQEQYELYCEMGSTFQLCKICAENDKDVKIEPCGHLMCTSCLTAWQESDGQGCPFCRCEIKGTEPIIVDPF

| Compound | IC50 (Cbl-b) | IC50 (c-Cbl) | (fold-selectivity) (c-Cbl) |
| --- | --- | --- | --- |
| Cn1cnnc1[C@@H](F)C1(c2cccc(N3Cc4c(cc(CN)cc4C(F)(F)F)C3=O)c2)CCC1 [Compound 387, (S)-6-(aminomethyl)-2-(3-(1-(fluoro(4-methyl-4H-1,2,4-triazol-3-yl)methyl)cyclobutyl)phenyl)-4-(trifluoromethyl)isoindolin-1-one] | 58 nM | 53 nM | (0.91x) |
| CC(C)[C@H]1CN(C)CCN1C(C)c1cc2c(c(C(F)(F)F)c1)CN(c1cccc(C3([C@@H](F)c4nncn4C)CC(F)(F)C3)c1)C2=O (stereo partly drawn) [Compound 388, 2-(3-(3,3-difluoro-1-((R)-fluoro(4-methyl-4H-1,2,4-triazol-3-yl)methyl)cyclobutyl)phenyl)-6-(1-((S)-2-isopropyl-4-methylpiperazin-1-yl)ethyl)-4-(trifluoromethyl)isoindolin-1-one] | 46 nM | 63 nM | (1.4x) |
| Cn1cnnc1[C@H](F)C1(c2cccc(N3Cc4c(cc([C@@H](N)CC5CC5)cc4C(F)(F)F)C3=O)c2)COC1 [Compound 389, 6-((S)-1-amino-2-cyclopropylethyl)-2-(3-(3-((R)-fluoro(4-methyl-4H-1,2,4-triazol-3-yl)methyl)oxetan-3-yl)phenyl)-4-(trifluoromethyl)isoindolin-1-one] | 9.6 nM | 14 nM | (1.4x) |
| Cn1cnnc1[C@H](F)C1(c2cccc(N3Cc4c(cc([C@H](N)CC5CC5)cc4C(F)(F)F)C3=O)c2)COC1 [Compound 390, 6-((R)-1-amino-2-cyclopropylethyl)-2-(3-(3-((R)-fluoro(4-methyl-4H-1,2,4-triazol-3-yl)methyl)oxetan-3-yl)phenyl)-4-(trifluoromethyl)isoindolin-1-one] | 96 nM | 11 nM | (1.1x) |
| Cn1cnnc1[C@H](F)C1(c2cccc(N3Cc4c(cc([C@@H](N)C5CCC5)cc4C(F)(F)F)C3=O)c2)COC1 [Compound 391, 6-((S)-amino(cyclobutyl)methyl)-2-(3-(3-((R)-fluoro(4-methyl-4H-1,2,4-triazol-3-yl)methyl)oxetan-3-yl)phenyl)-4-(trifluoromethyl)isoindolin-1-one] | 33 nM | 63 nM | (1.9x) |
| Cn1cnnc1[C@H](F)C1(c2cccc(N3Cc4c(cc([C@H](N)C5CCC5)cc4C(F)(F)F)C3=O)c2)COC1 [Compound 392, 6-((R)-amino(cyclobutyl)methyl)-2-(3-(3-((R)-fluoro(4-methyl-4H-1,2,4-triazol-3-yl)methyl)oxetan-3-yl)phenyl)-4-(trifluoromethyl)isoindolin-1-one] | 13 nM | 15 nM | (1.1x) |
| Cn1cnnc1[C@H](F)C1(c2cccc(N3Cc4c(cc(CN)cc4C(F)(F)F)C3=O)c2)CC(F)(F)C1.O=CO [Compound 393, (R)-6-(aminomethyl)-2-(3-(3,3-difluoro-1-(fluoro(4-methyl-4H-1,2,4-triazol-3-yl)methyl)cyclobutyl)phenyl)-4-(trifluoromethyl)isoindolin-1-one formate] | 130 nM | 170 nM | (1.3x) |
| Cn1cnnc1[C@@H](F)C1(c2cccc(N3Cc4c(cc(CN)cc4C(F)(F)F)C3=O)c2)CC(F)(F)C1.O=CO [Compound 394, (S)-6-(aminomethyl)-2-(3-(3,3-difluoro-1-(fluoro(4-methyl-4H-1,2,4-triazol-3-yl)methyl)cyclobutyl)phenyl)-4-(trifluoromethyl)isoindolin-1-one formate] | 120 nM | 160 nM | (1.3x) |
| Cn1cnnc1[C@H](F)C1(c2cccc(N3Cc4c(cc(CN5CCCC5)cc4C(F)(F)F)C3=O)c2)CC(F)(F)C1 [Compound 395, (R)-2-(3-(3,3-difluoro-1-(fluoro(4-methyl-4H-1,2,4-triazol-3-yl)methyl)cyclobutyl)phenyl)-6-(pyrrolidin-1-ylmethyl)-4-(trifluoromethyl)isoindolin-1-one] | 110 nM | 110 nM | (1.0x) |
| Cn1cnnc1[C@@H](F)C1(c2cccc(N3Cc4c(cc(CN5CCCC5)cc4C(F)(F)F)C3=O)c2)CC(F)(F)C1 [Compound 396, (S)-2-(3-(3,3-difluoro-1-(fluoro(4-methyl-4H-1,2,4-triazol-3-yl)methyl)cyclobutyl)phenyl)-6-(pyrrolidin-1-ylmethyl)-4-(trifluoromethyl)isoindolin-1-one] | 120 nM | 150 nM | (1.3x) |
| Cn1cnnc1[C@H](F)C1(c2cccc(N3Cc4c(cc(CN5CCC5)cc4C(F)(F)F)C3=O)c2)CC(F)(F)C1 [Compound 397, (R)-6-(azetidin-1-ylmethyl)-2-(3-(3,3-difluoro-1-(fluoro(4-methyl-4H-1,2,4-triazol-3-yl)methyl)cyclobutyl)phenyl)-4-(trifluoromethyl)isoindolin-1-one] | 150 nM | 150 nM | (1.0x) |
| Cn1cnnc1[C@@H](F)C1(c2cccc(N3Cc4c(cc(CN5CCC5)cc4C(F)(F)F)C3=O)c2)CC(F)(F)C1 [Compound 398, (S)-6-(azetidin-1-ylmethyl)-2-(3-(3,3-difluoro-1-(fluoro(4-methyl-4H-1,2,4-triazol-3-yl)methyl)cyclobutyl)phenyl)-4-(trifluoromethyl)isoindolin-1-one] | 140 nM | 180 nM | (1.3x) |

Other lines, results leading:

| IC50 (Cbl-b) | IC50 (c-Cbl) | (fold-selectivity) (c-Cbl) | Compound |
| --- | --- | --- | --- |
| 510 nM | 430 nM | (0.84x) | Cn1cnnc1C(F)(F)C1(c2cccc(N3Cc4c(cc(CN)cc4C(F)(F)F)C3=O)c2)CC(F)(F)C1 [Compound 399, 6-(aminomethyl)-2-(3-(1-(difluoro(4-methyl-4H-1,2,4-triazol-3-yl)methyl)-3,3-difluorocyclobutyl)phenyl)-4-(trifluoromethyl)isoindolin-1-one] |
| 39 nM | 51 nM | (1.3x) | Cn1cnnc1CC1(c2cccc(N3Cc4c(cc(CN)cc4C(F)(F)F)C3=O)c2)CC(F)(F)C1 [Compound 400, 6-(aminomethyl)-2-(3-(3,3-difluoro-1-((4-methyl-4H-1,2,4-triazol-3-yl)methyl)cyclobutyl)phenyl)-4-(trifluoromethyl)isoindolin-1-one] |
| 29 nM | 27 nM | (0.95x) | CC[C@H]1CN(C)CCN1Cc1cc2c(c(C(F)(F)F)c1)CN(c1cccc(C3(Cc4nncn4C)CC(F)(F)C3)c1)C2=O [Compound 401, (S)-2-(3-(3,3-difluoro-1-((4-methyl-4H-1,2,4-triazol-3-yl)methyl)cyclobutyl)phenyl)-6-((2-ethyl-4-methylpiperazin-1-yl)methyl)-4-(trifluoromethyl)isoindolin-1-one] |
| 39 nM | 46 nM | (1.2x) | CN1CCN(Cc2cc3c(c(C(F)(F)F)c2)CN(c2cccc(C4(Cc5nncn5C)CC(F)(F)C4)c2)C3=O)[C@@H](C2CC2)C1 [Compound 402, (S)-6-((2-cyclopropyl-4-methylpiperazin-1-yl)methyl)-2-(3-(3,3-difluoro-1-((4-methyl-4H-1,2,4-triazol-3-yl)methyl)cyclobutyl)phenyl)-4-(trifluoromethyl)isoindolin-1-one] |
| 45 nM | 45 nM | (1.0x) | CN1CCN(Cc2cc3c(c(C(F)(F)F)c2)CN(c2cccc(C4(Cc5nncn5C)CC(F)(F)C4)c2)C3=O)CC1C1CC1 (stereo not drawn) [Compound 403, 6-((3-cyclopropyl-4-methylpiperazin-1-yl)methyl)-2-(3-(3,3-difluoro-1-((4-methyl-4H-1,2,4-triazol-3-yl)methyl)cyclobutyl)phenyl)-4-(trifluoromethyl)isoindolin-1-one] |
| 10 nM | 5.4 nM | (0.54x) | CCOc1cc(C2(Cc3nncn3C)CCC2)cc(N2Cc3c(cc(CN4CCN(C)C[C@@H]4C(C)C)cc3C(F)(F)F)C2=O)n1 [Compound 404, (S)-2-(6-ethoxy-4-(1-((4-methyl-4H-1,2,4-triazol-3-yl)methyl)cyclobutyl)pyridin-2-yl)-6-((2-isopropyl-4-methylpiperazin-1 - yl)methyl)-4-(trifluoromethyl)isoindolin-1-one] |
| 18 nM | 16 nM | (0.91x) | CC(C)[C@H]1CN(C2CC2)CCN1Cc1cc2c(c(C(F)(F)F)c1)CN(c1cccc(C3([C@@H](F)c4nncn4C)COC3)c1)C2=O [Compound 405, 6-(((S)-4-cyclopropyl-2-isopropylpiperazin-1-yl)methyl)-2-(3-(3-((R)-fluoro(4-methyl-4H-1,2,4-triazol-3-yl)methyl)oxetan-3-yl)phenyl)-4-(trifluoromethyl)isoindolin-1-one] |
| 75 nM | 84 nM | (1.1x) | CC(C)[C@@H]1CN(Cc2cc3c(c(C(F)(F)F)c2)CN(c2cccc(C4([C@@H](F)c5nncn5C)COC4)c2)C3=O)CCN1C [Compound 406, 2-(3-(3-((R)-fluoro(4-methyl-4H-1,2,4-triazol-3-yl)methyl)oxetan-3-yl)phenyl)-6-(((R)-3-isopropyl-4-methylpiperazin-1-yl)methyl)-4-(trifluoromethyl)isoindolin-1-one] |
| 7.1 nM | 5.7 nM | (0.80x) | CC(C)[C@H]1CN(C)CCN1Cc1cc2c(c(C(F)(F)F)c1)CN(c1cccc(C3(Cc4nncn4C)COC3)c1)C2=O [Compound 407, (S)-6-((2-isopropyl-4-methylpiperazin-1-yl)methyl)-2-(3-(3-((4-methyl-4H-1,2,4-triazol-3-yl)methyl)oxetan-3-yl)phenyl)-4-(trifluoromethyl)isoindolin-1-one] |
